# Measurements as given in patent US6939893B2, “Method of reducing toxicity of anticancer agents” (priority 2002, dated 2005).
# Like-named read-outs stand apart in the source and are kept apart here.
# Key:
# [1] = tested on: normal nude mice; assay: Effect of MSC on in vivo toxicity of irinotecan in normal nude mice (Example 1, FIG. 1); conditions: for protection provided by MSC: MSC 0.2 mg/mouse/day ×42 p.o.
# Experimental: The data are combined from at least three independent experiments with five (5) animals per experiment.
# To illustrate this embodiment, nude mice were administered 42 single, daily oral doses of 0.2 mg/mouse of MSC.
# [2] = tested on: normal rats; assay: Effect of MSC on toxicity of irinotecan in normal rats (Example 2, FIG. 2); format: in vivo
# Excerpt: The data are combined from 2-5 independent experiments with four (4) animals for each experiment.
# [3] = tested on: normal nude mice; assay: Comparison of MSC and SLM as modulators of irinotecan toxicity in normal nude mice (Example 5, FIG. 4); format: in vivo
# Excerpt: Each experimental group had 10 mice each from two (2) independent experiments.
# [4] = tested on: normal mice; assay: Role of MSC dose in modulating irinotecan toxicity in normal mice (Example 6); format: in vivo
# Excerpt: In order to identify the minimum dose of MSC in the successful modulation of drug induced toxicities. […] Those skilled in the art will recognize that by conducting experiments as described herein, optimal doses of selenium for reducing toxicity of other chemotherapeutic agents and other anticancer modalities can be easily determined.
# [5] = tested on: squamous cell carcinoma of the head and neck (A253); conditions: MSC 0.2 mg/mouse/d × 42 p.o. where combined
# [6] = tested on: normal nude mice
# [7] = tested on: normal nude mice; assay: Effect of MSC on toxicity of irinotecan, taxol, FU and cisplatin in normal nude mice (Example 4, FIG. 3); format: in vivo; conditions: toxic doses above MTD: irinotecan weekly, taxol 75 mg/kg, 5-FU 150 mg/kg, cisplatin 15 mg/kg once i.v.
# Excerpt: In all cases drug doses used were toxic and above the maximum tolerated dose.
# [8] = tested on: rats; assay: Renal function test after CDDP ± MSC treatment in rats (Example 8); format: in vivo
# Experimental: Reversal of renal toxicity induced by Cisplatin (CDDP). The dose limiting toxicity of therapeutic doses of cisplatin is kidney toxicity. Studies were performed to identify blood biological markers modified by CDDP and to evaluate the ability of MSC to reverse the process. Four groups of six animals each were used. The first group was untreated rats (control), the second group was given MSC at 0.75 mg/rat/day for 20 days and samples collected 2 hours after MSC administration on day 20. The third group was administered CDDP alone at 6 mg/kg by a single
# i.v. injection and samples were collected on day 6. The fourth group was adminstered MSC (0.75 mg/rat/day for 20 days) with CDDP (6 mg/kg). CDDP was given 14 days after MSC administration and […] was given for 6 more days after CDDP administration. Samples were collected on day 6 after CDDP administration. Blood samples were collected at postmortem by cardiac puncture. Serum was obtained from the blood samples and urea nitrogen and creatinine concentrations were determined by standard methods using commercially kits (Ortho Clinical Diagnostics).
# [9] = irinotecan 100 mg/kg/wk ×4 i.v. alone
# [10] = irinotecan 200 mg/kg/wk×4 i.v. alone
# [11] = irinotecan 100 mg/kg/wk × 4 i.v.
# [12] = day 22, 24 h after third irinotecan dose, irinotecan 200 mg/kg, MSC 0.2 mg/mouse
# [13] = serum, Mean ± SD, CDDP 6 mg/kg single i.v., MSC 0.75 mg/rat daily for 20 days
structure (smiles),measurement,setting,value
"CCc1c2c(nc3ccc(OC(=O)N4CCC(N5CCCCC5)CC4)cc13)-c1cc3c(c(=O)n1C2)COC(=O)[C@]3(O)CC [Irinotecan, irinotecan, reference compound]",animals survived treatment,[1]; [9],100%
same,weight loss,[1]; [9],less than 20%
same,animals died by the end of treatment,[1]; [10],55%
same,maximum tolerated dose (MTD),"[1]; normal nude mice, irinotecan i.v. weekly ×4",100 mg/kg/wk
same,animals died,"[2]; rats, irinotecan 200 mg/kg/day for 3 days i.v. (twice MTD), MSC 1 mg/kg/rat daily ×18 p.o.",all the animals
same,lethality,[3]; [10],approximately 55%
same,survivors,[3]; [10],45%
same,lethality,[4]; irinotecan 200 mg/kg/wk×4 alone,50%
same,Response Rate (%) CR,[5]; [11],20%
same,Response Rate (%) PR,[5]; [11],20%
same,Survivors (%),[5]; [11],100%
same,Survivors (%),[5]; irinotecan 200 mg/kg/wk × 4 i.v.,45%
same,Survivors (%),[5]; irinotecan 300 mg/kg/wk × 4 i.v.,0%
same,HCT: haematocrit,[6]; [12],40.9 ± 4.2%
same,MCH: mean corpuscular hemoglobin,[6]; [12],17.5 ± 0.3 PICO Grams
same,MCHC: mean corpuscular hemoglobin concentration,[6]; [12],32.7 ± 0.6%
same,PLT: platelets,[6]; [12],836 ± 201 THSN/CU MM
same,RBC: red blood cell,[6]; [12],7.8 ± 1.0 Mill/CU MM
same,WBC: white blood cell,[6]; [12],3.5 ± 0.5 THSN/CU MM
same,WBC: white blood cell,"[6]; day 22, 24 h after third irinotecan dose, irinotecan 200 mg/kg, MSC 0.2 mg/mouse, listed as irinotecan",3.5 THSN/CU MM
same,reduction in white blood cells,"[6]; irinotecan 200 mg/kg/wk, versus control (9.4 to 3.5)",over 60%
"C[Se]C[C@H](N)C(=O)O [MSC, methylselenocysteine]",effect of adding MSC on overall body weight loss,[1]; irinotecan 100 mg/kg/wk ×4 i.v. + MSC 0.2 mg/mouse/day ×42 p.o.,decrease in overall body weight loss
same,protection provided by MSC,[1]; irinotecan 200 mg/kg/wk×4 (twice MTD),100%
same,animals survived,[1]; irinotecan 200 mg/kg/wk×4 i.v. with MSC 0.2 mg/mouse/day ×42 p.o.,100%
same,protection provided by MSC,[1]; irinotecan 300 mg/kg/wk×4 (three times MTD),80%
same,animals with severe diarrhea completely protected by MSC,"[2]; rats (FIG. 2), irinotecan 200 mg/kg dose",50%
same,effect of MSC on the survival rate of animals,[7],protective effect
same,reduction of irinotecan toxicity by selenium compound,"[3]; irinotecan 200 mg/kg/wk×4 i.v., selenium compound p.o. daily for 28 days, first dose 7 days before irinotecan",equally effective in reducing toxicity
same,MSC dose sufficient for complete protection against lethal doses of irinotecan,[4]; MSC 0.01 to 0.2 mg/mouse/day×42 with irinotecan 200 mg/kg/wk×4,≤ 0.01 mg/mouse
same,lethality with the combination,[4]; MSC as low as 0.01 mg/mouse with irinotecan 200 mg/kg/wk×4,no lethality
same,reversal of markers associated with kidney toxicity (BUN and creatinine),[8]; MSC 0.75 mg/rat/day with CDDP 6 mg/kg,highly effective
same,Blood Urea Nitrogen,[8]; [13],12.7 ± 1.2 mg/dL
same,Creatinine,[8]; [13],0.30 ± 0.00 mg/dL
same,prevention of neutropenia toxicity induced by irinotecan,[6]; MSC 0.2 mg/mouse/day with irinotecan 200 mg/kg/wk,effectively prevent neutropenia toxicity
same,HCT: haematocrit,[6]; [12],49.4 ± 2.4%
same,HGB: hemoglobin,[6]; [12],16.8 ± 0.7 Gram/DL
same,MCH: mean corpuscular hemoglobin,[6]; [12],18.4 ± 0.7 PICO Grams
same,MCHC: mean corpuscular hemoglobin concentration,[6]; [12],34.0 ± 0.7%
same,MCV: mean corpuscular volume,[6]; [12],54.0 ± 1.0 CU Microns
same,PLT: platelets,[6]; [12],756 ± 231 THSN/CU MM
same,RBC: red blood cell,[6]; [12],9.1 ± 0.5 Mill/CU MM
same,WBC: white blood cell,[6]; [12],10.3 ± 4.5 THSN/CU MM
same,protection against hematologic toxicity induced by irinotecan,[6]; irinotecan 200 mg/kg/wk×4,complete protection
